Data set [1] deals with Recombinant full length PARP2 (Homo sapiens (Human), UniProt Q9UGN5). Kind of data set: FP assay PARP2 (fluorescence anisotropy probe displacement). It counts as binding. To be noted: 60 nM PARP2, 8 nM fluorescent probe, 4 h, room temperature. As to the method: (§1) FP experiments were carried out at room temperature using no-binding black 384-well microplates. Recombinant full length PARP1 and PARP2 proteins produced in house were diluted to 20 nM and 60 nM, respectively, with assay buffer (50 mM Tris pH 8, 0.001% Triton X100, 10 mM MgCl2, and 150 mM NaCl) and incubated for 4 h with an equivalent volume of the 8 nM fluorescent probe diluted with assay buffer. Fluorescence anisotropy of the probe when bound to the proteins was measured in the presence of test compounds or solvent control and the effect on anisotropy determined. Polarization values were read using an Envision plate reader using excitation and emission wavelengths of 590 and 630 nm, respectively. All FP values are expressed as mP units. Inhibition ratio was calculated using readout (mP) following the equation as below: […]
Sequence of Recombinant full length PARP2 (Q9UGN5 whole entry): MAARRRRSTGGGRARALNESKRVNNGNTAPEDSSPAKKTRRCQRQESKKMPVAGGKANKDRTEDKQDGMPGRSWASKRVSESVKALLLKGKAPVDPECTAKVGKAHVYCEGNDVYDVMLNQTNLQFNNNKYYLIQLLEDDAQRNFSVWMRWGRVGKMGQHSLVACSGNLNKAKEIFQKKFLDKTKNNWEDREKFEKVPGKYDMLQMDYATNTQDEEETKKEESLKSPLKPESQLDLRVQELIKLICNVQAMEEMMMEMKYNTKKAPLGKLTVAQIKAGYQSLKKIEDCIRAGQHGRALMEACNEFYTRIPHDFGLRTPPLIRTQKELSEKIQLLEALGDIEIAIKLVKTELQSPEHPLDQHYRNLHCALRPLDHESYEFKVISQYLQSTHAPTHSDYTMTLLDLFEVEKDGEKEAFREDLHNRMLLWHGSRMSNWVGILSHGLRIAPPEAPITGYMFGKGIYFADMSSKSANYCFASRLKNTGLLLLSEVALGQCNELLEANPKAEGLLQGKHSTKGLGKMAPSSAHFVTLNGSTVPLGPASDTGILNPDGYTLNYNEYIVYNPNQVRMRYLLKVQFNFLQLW
(§2) % inhibition values for different test compound concentrations were calculated and fitted to a four parameter logistic plot in order to determine the IC50 value using XLfit.

Data set [2] concerns the target Recombinant full length PARP1 (Homo sapiens (Human), UniProt P09874). Kind of data set: FP assay PARP1 (fluorescence anisotropy probe displacement). To be noted: 20 nM PARP1, 8 nM fluorescent probe, 4 h, room temperature. It counts as binding. The procedure: as §1, §2
In another data set the test system is DLD1-BRCA2−/− cells. As to the kind of experiment: Cell proliferation assay in DLD1-BRCA2−/− cell lines (CellTiter-Glo, 7 days). It counts as cell-based. As to the method:
BRCA2 (−/−) cells cultured in RPMI 1640+10% FBS were harvested and diluted to a density of 1×10^4 cells/mL and 2×10^4 cells/mL, respectively. Cells (40 μL/well) were seeded into 384-well cell culture plates. Plates were covered and incubated at 37° C., 5% CO2 overnight prior to the addition of test compounds or vehicle. The plates were then incubated at 37° C., 5% CO2 for 7 days. On day 8, the plates were removed from incubator and equilibrated at room temperature for 15 minutes. CellTiter-Glo (40 μL, at 1:1 to culture medium) is added into each well and the plates were placed at room temperature for 30 min. Luminescence was measured using an Envision plate reader. The resultant data were analysed as follows; where LC is culture medium without cells:
% inhibition values for different test compound concentrations were calculated and fitted to a four parameter logistic plot in order to determine the IC50 value using XLfit

Data set [3] is described as follows: Caco2 (A-B/B-A) permeability. It counts as in vitro ADME. To be noted: human; for efflux ratio at 120 min, 5 μM: Caco-2, pH 7.4, PappB-A/PappA-B, read-out: Caco2 efflux ratio (ER); for Papp A→B at 120 min, 5 μM: Caco-2, pH 7.4, apical-to-basolateral, read-out: Caco2 A-B apparent permeability (Papp); for Papp A→B at 120 min, 5 μM / Papp B→A at 120 min, 5 μM: HBSS pH 7.4, 120 min, 37° C.; for Papp B→A at 120 min, 5 μM: Caco-2, pH 7.4, basolateral-to-apical, read-out: Caco2 B-A apparent permeability (Papp). As to the method: The apical-to-basolateral (A-B) and basolateral-to-apical (B-A) transport of 5 μM test compounds in HBSS (10 mM HEPES, pH 7.4) was measured across Caco-2 cell monolayers (cells sourced from American Type Culture Collection, Manassas, Virgina). Duplicate incubations were performed at approximately 37° C. for 120 min, with functionality of the test system confirmed using 5 μM propranolol and digoxin as control compounds. Aliquots (50 μL) from both apical and basolateral wells were transferred into two fresh 96-well plates and quenched with acetonitrile solution containing analytical internal standards. Samples were vortexed mixed, centrifuged and a 100 μL aliquot of the resulting supernatant mixed with an equal volume of ultra-pure water prior to analysis by UPLC-MS/MS. The concentrations of test compound and control compounds in the incubation medium of donor and receiver compartments at the beginning and the end of the incubation period were used to calculate the apparent permeability (Papp) from A-B and B-A directions. The efflux ratio (ER) was expressed as PappB-A/PappA-B. The integrity of the cell monolayers after 2 hours incubation was confirmed using the marker reagent Lucifer yellow.

The record followed here is patent US20250289814A1, “COMPOUNDS AS PARP1 INHIBITIORS” (NINGBO NEWBAY TECHNOLOGY DEVELOPMENT CO., LTD., priority 2022, published 2025).

Like-named read-outs stand apart in the source and are kept apart here. Bounds are passed on as bounds.

Sequence of Recombinant full length PARP1 (P09874 whole entry): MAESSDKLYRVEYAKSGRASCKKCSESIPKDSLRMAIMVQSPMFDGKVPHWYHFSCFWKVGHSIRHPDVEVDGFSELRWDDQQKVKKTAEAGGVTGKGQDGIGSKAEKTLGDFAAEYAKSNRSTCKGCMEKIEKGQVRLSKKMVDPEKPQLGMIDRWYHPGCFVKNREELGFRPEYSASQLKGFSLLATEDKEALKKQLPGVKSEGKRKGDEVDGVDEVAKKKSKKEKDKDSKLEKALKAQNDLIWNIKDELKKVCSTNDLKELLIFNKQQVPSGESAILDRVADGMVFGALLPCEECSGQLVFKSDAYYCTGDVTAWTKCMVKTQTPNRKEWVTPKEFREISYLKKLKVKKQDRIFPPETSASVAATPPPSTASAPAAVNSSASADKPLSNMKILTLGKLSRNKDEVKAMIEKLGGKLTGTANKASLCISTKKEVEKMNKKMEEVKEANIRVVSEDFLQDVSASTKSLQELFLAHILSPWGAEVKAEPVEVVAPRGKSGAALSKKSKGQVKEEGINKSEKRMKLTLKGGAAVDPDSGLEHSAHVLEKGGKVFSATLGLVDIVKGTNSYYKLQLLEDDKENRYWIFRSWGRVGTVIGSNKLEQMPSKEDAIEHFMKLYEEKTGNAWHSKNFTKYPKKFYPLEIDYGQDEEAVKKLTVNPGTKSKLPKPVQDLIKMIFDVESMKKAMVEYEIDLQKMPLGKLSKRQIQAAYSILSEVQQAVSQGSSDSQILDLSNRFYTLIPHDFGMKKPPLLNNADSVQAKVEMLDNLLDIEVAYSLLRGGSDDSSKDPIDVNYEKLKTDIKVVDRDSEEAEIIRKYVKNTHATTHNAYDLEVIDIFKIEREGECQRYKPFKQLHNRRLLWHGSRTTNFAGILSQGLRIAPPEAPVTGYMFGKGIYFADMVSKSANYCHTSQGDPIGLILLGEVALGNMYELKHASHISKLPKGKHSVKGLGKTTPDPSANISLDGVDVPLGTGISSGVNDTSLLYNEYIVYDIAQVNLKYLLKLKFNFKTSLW

As to `CCc1cc2ncc(C(C)N3CC(Oc4ccc(C(=O)NC)nc4)C3)cc2[nH]c1=O` (racemic) [Compound 43, 5-((1-(1-(7-ethyl-6-oxo-5,6-dihydro-1,5-naphthyridin-3-yl)ethyl)azetidin-3-yl)oxy)-N-methylpicolinamide], the IC50 turned out to be 3760 nM in data set [1]; 5.9 nM in data set [2]; 12.2 nM in the data set on DLD1-BRCA2−/− cells (Homo sapiens, DLD-1, 168 h).
As for `CCc1nc2ccc([C@H](C)N3CC(Oc4ccc(C(=O)NC)nc4F)C3)cc2[nH]c1=O` (single isomer, unassigned) [Compound 56, (enantiomer 1 or 2)-5-((1-(1-(2-ethyl-3-oxo-3,4-dihydroquinoxalin-6-yl)ethyl)azetidin-3-yl)oxy)-6-fluoro-N-methylpicolinamide], in data set [3], the efflux ratio at 120 min, 5 μM was 3.01; the apparent permeability from apical to basolateral (Papp A→B) at 120 min, 5 μM amounted to 8.54 ×10⁻⁶ cm/s; the apparent permeability from basolateral to apical (Papp B→A) at 120 min, 5 μM came out at 25.8 ×10⁻⁶ cm/s. In addition, in data set [2], the half-maximal inhibitory concentration (IC50) amounted to 11 nM. Besides, the IC50 in the data set on DLD1-BRCA2−/− cells (Homo sapiens, DLD-1, 168 h) amounted to 10.9 nM.
On to `CNC(=O)c1ccc(O[C@@H]2CCN(Cc3cnc4cc(C5CC5)c(=O)[nH]c4c3)C2)cn1` (single isomer, unassigned) [Compound 60, (enantiomer 1 or 2)-5-((1-((7-cyclopropyl-6-oxo-5,6-dihydro-1,5-naphthyridin-3-yl)methyl)pyrrolidin-3-yl)oxy)-N-methylpicolinamide], for which the values for the half-maximal inhibitory concentration (IC50) (in data set [1]; in data set [2]; in the data set on DLD1-BRCA2−/− cells) were greater than 10000 nM, 64.3 nM and greater than 1000 nM, respectively.
On to `CNC(=O)c1ccc(O[C@@H]2CCN(Cc3cnc4cc(C5CC5)c(=O)[nH]c4c3)C2)cn1` (single isomer, unassigned) [Compound 61, (enantiomer 1 or 2)-5-((1-((7-cyclopropyl-6-oxo-5,6-dihydro-1,5-naphthyridin-3-yl)methyl)pyrrolidin-3-yl)oxy)-N-methylpicolinamide], for which the 50% inhibitory concentration (IC50) in data set [1] is greater than 10000 nM; in data set [2] it was 6.62 nM; with DLD1-BRCA2−/− cells it was 40.7 nM.
On to `CCc1cc2ncc(CN3CC(N(C)c4ccc(C(=O)NC)nc4)C3)cc2[nH]c1=O` [Compound 3, 5-((1-((7-ethyl-6-oxo-5,6-dihydro-1,5-naphthyridin-3-yl)methyl)azetidin-3-yl)(methyl)amino)-N-methylpicolinamide], for which the IC50 in data set [1] was greater than 10000 nM; in data set [2], 4.3 nM; in the data set on DLD1-BRCA2−/− cells (Homo sapiens, DLD-1, 168 h), 221 nM.
On the same counts, the results for `CCc1cc2ncc(CN3CCC(Cc4ccc(C(=O)NC)nc4)C3)cc2[nH]c1=O` (centres unmarked) [Compound 7, 5-((1-((7-ethyl-6-oxo-5,6-dihydro-1,5-naphthyridin-3-yl)methyl)pyrrolidin-3-yl)methyl)-N-methylpicolinamide] are 7040 nM, 7.8 nM and 207 nM.
The corresponding values for `CNC(=O)c1ccc(OC2CCN(Cc3cnc4cc(C5CC5)c(=O)[nH]c4c3)C2)cn1` (centres unmarked) [Compound 14, 5-((1-((7-cyclopropyl-6-oxo-5,6-dihydro-1,5-naphthyridin-3-yl)methyl)pyrrolidin-3-yl)oxy)-N-methylpicolinamide] are greater than 10000 nM, 6.6 nM and 48.6 nM.
On the same counts, the results for `CCc1cc2ncc(CN3CCC(Oc4ccc(C(=O)NC)nc4)CC3)cc2[nH]c1=O` [Compound 15, 5-((1-((7-ethyl-6-oxo-5,6-dihydro-1,5-naphthyridin-3-yl)methyl)piperidin-4-yl)oxy)-N-methylpicolinamide] are greater than 10000 nM, 18 nM and 195 nM.
For `CCc1cc2ncc(C(C)N3CC(Oc4ccc(C(=O)NC)nc4C)C3)cc2[nH]c1=O` (centres unmarked) [Compound 19, 5-((1-(1-(7-ethyl-6-oxo-5,6-dihydro-1,5-naphthyridin-3-yl)ethyl)azetidin-3-yl)oxy)-N,6-dimethylpicolinamide], the IC50 is greater than 10000 nM in data set [1]; 6.1 nM in data set [2]; greater than 1000 nM in the data set on DLD1-BRCA2−/− cells (Homo sapiens, DLD-1, 168 h).
Regarding `CCc1cc2ncc(C(C)N3CC(Oc4ccc(C(=O)NC)nc4F)C3)cc2[nH]c1=O` (centres unmarked) [Compound 21, 5-((1-(1-(7-ethyl-6-oxo-5,6-dihydro-1,5-naphthyridin-3-yl)ethyl)azetidin-3-yl)oxy)-6-fluoro-N-methylpicolinamide], the concentration for half-maximal inhibition (IC50) in data set [1] was 4810 nM; in data set [2], 3.5 nM; with DLD1-BRCA2−/− cells (Homo sapiens, DLD-1, 168 h), 17.2 nM.
On the same counts, the results for `CCc1cc2ncc(CN3C[C@H](Oc4ccc(C(=O)NC)nc4)[C@@H](F)C3)cc2[nH]c1=O` [Compound 24, 5-(((3S,4S)-1-((7-ethyl-6-oxo-5,6-dihydro-1,5-naphthyridin-3-yl)methyl)-4-fluoropyrrolidin-3-yl)oxy)-N-methylpicolinamide] are greater than 10000 nM, 7.3 nM and 542 nM.
On the same counts, the results for `CCc1cc2ncc(CN3CC[C@@H](Oc4ccc(C(=O)NC)nc4F)C3)cc2[nH]c1=O` [Compound 29, (R)-5-((1-((7-ethyl-6-oxo-5,6-dihydro-1,5-naphthyridin-3-yl)methyl)pyrrolidin-3-yl)oxy)-6-fluoro-N-methylpicolinamide] are greater than 10000 nM, 9.6 nM and 7.9 nM.
On the same counts, the results for `CCc1cc2ncc(CN3CC[C@@H](Oc4ccc(C(=O)NC)nc4C)C3)cc2[nH]c1=O` [Compound 30, (R)-5-((1-((7-ethyl-6-oxo-5,6-dihydro-1,5-naphthyridin-3-yl)methyl)pyrrolidin-3-yl)oxy)-N,6-dimethylpicolinamide] are greater than 10000 nM, 4.4 nM and 256 nM.
For `CCc1cc2ncc(CN3CC4CCN(c5ccc(C(=O)NC)nc5)C4C3)cc2[nH]c1=O` (centres unmarked) [Compound 42, 5-(5-((7-ethyl-6-oxo-5,6-dihydro-1,5-naphthyridin-3-yl)methyl)hexahydropyrrolo[3,4-b]pyrrol-1(2H)-yl)-N-methylpicolinamide], in data set [3], the efflux ratio at 120 min, 5 μM worked out at 7.71; the Papp A→B at 120 min, 5 μM turned out to be 4.57 ×10⁻⁶ cm/s; the Papp B→A at 120 min, 5 μM amounted to 35.3 ×10⁻⁶ cm/s. The half-inhibitory concentration (IC50) in the data set with DLD1-BRCA2−/− cells (Homo sapiens, DLD-1, 168 h) is greater than 1000 nM.
As for `CCc1cc2ncc(CN3CC(Oc4ccc(C(=O)NC)nc4C)C3)cc2[nH]c1=O` [Compound 44, 5-((1-((7-ethyl-6-oxo-5,6-dihydro-1,5-naphthyridin-3-yl)methyl)azetidin-3-yl)oxy)-N,6-dimethylpicolinamide], the concentration for half-maximal inhibition (IC50) was greater than 10000 nM in data set [1]; 4.4 nM in data set [2]; greater than 1000 nM in the data set with DLD1-BRCA2−/− cells (Homo sapiens, DLD-1, 168 h).
On to `CCc1nc2ccc(C(C)N3CC(Oc4ccc(-n5ccnn5)nc4)C3)cc2[nH]c1=O` (centres unmarked) [Compound 54, 7-(1-(3-((6-(1H-1,2,3-triazol-1-yl)pyridin-3-yl)oxy)azetidin-1-yl)ethyl)-3-ethylquinoxalin-2(1H)-one], for which the IC50 in data set [2] worked out at 2.12 nM; in the data set on DLD1-BRCA2−/− cells (Homo sapiens, DLD-1, 168 h), 38.5 nM.
For the compound `CCc1nc2ccc(C(C)N3CC(Oc4ccc(C(=O)NC)nc4F)C3)c(F)c2[nH]c1=O` (centres unmarked) [Compound 55, 5-((1-(1-(2-ethyl-5-fluoro-3-oxo-3,4-dihydroquinoxalin-6-yl)ethyl)azetidin-3-yl)oxy)-6-fluoro-N-methylpicolinamide], in data set [3], the efflux ratio at 120 min, 5 μM was found to be 1.5; the Papp A→B at 120 min, 5 μM was 9.92 ×10⁻⁶ cm/s; the apparent permeability from basolateral to apical (Papp B→A) at 120 min, 5 μM worked out at 14.8 ×10⁻⁶ cm/s. Further, in data set [2], the concentration for half-maximal inhibition (IC50) was found to be 28.1 nM. Further, in the data set on DLD1-BRCA2−/− cells (Homo sapiens, DLD-1, 168 h), 554 nM corresponded to half-maximal inhibition (IC50).
On to `CCc1cc2cnc(CN3CC[C@@H](Oc4ccc(C(=O)NC)nc4F)C3)cc2[nH]c1=O` [Compound 62, (R)-5-((1-((3-ethyl-2-oxo-1,2-dihydro-1,6-naphthyridin-7-yl)methyl)pyrrolidin-3-yl)oxy)-6-fluoro-N-methylpicolinamide], for which, in data set [3], the efflux ratio at 120 min, 5 μM amounted to 12.7; the apparent permeability from apical to basolateral (Papp A→B) at 120 min, 5 μM was 2.46 ×10⁻⁶ cm/s; the apparent permeability from basolateral to apical (Papp B→A) at 120 min, 5 μM turned out to be 31.2 ×10⁻⁶ cm/s. The compound also came in with a half-inhibitory concentration (IC50) with DLD1-BRCA2−/− cells (Homo sapiens, DLD-1, 168 h) of 1.6 nM.
